Assay results taken from publication PMC3960879 (Biology, 2013).
Read-outs that look alike come from different tables or passages of the source.

Assays:
[1] = target: T1, F17aG receptor-binding domain (Escherichia coli, UniProt Q99003); experiment: biochemical
T1 construct: variants of the lectin domains with oligolysine (4Lys) tails have been constructed; made in house; host or cells: E. coli (periplasm)
Experimental: (§1) The affinity profiles were determined by surface plasmon resonance (SPR) measurements using a BiaCore 3000 instrument (GE Healthcare). […] The proteins were covalently immobilized on CM5 sensor chips (Biacore AB) to an average density of 2000 RU (resonance units in pg/mm^2). On each chip, one flow cell was coated with a camel single domain antibody for use as a reference cell. The other three flow cells (Fc2, Fc3 and Fc4) were coated with three different F17G variants. Carbohydrate concentrations ranging from 10 µM to 10 mM in running buffer (20 mM Hepes, pH 7.4; 150 mM NaCl; 3 mM EDTA and 0.005% surfactant Tween 20) were incubated for one minute on all flow cells simultaneously, at 25 °C and at a flow rate of 30 µL/min. Complete dissociation of the carbohydrates in running buffer was verified before starting a new binding cycle. All binding cycles were performed in duplicate, including a zero concentration cycle (injection of pure running buffer). All analysis was done using the BIAeval software. In each case the equilibrium resonance signal from the reference cell was subtracted from that of the various F17G flow cells (2-1, 3-1, 4-1). A Langmuir binding isotherm with a 1:1 stoichiometry was fitted to the data, from which the equilibrium dissociation constants, Kd, were obtained.

[2] = target: F17fG receptor-binding domain (Escherichia coli, UniProt Q9RH91); experiment: Surface plasmon resonance steady-state affinity, immobilized F17fG; details: SPR steady state, 25 °C, pH 7.4; read-out: Affinity range (Kd class), F17fG
Experimental: as §1

[3] = target: F17eG receptor-binding domain; experiment: Surface plasmon resonance steady-state affinity, immobilized F17eG; parameters: species or system Escherichia coli; details: SPR steady state, 25 °C, pH 7.4
Experimental: as §1

[4] = target: T2, F17bG receptor-binding domain (Escherichia coli, UniProt Q47200); details: SPR steady state, 25 °C, pH 7.4; read-out: Affinity range (Kd class), F17bG
T2 construct: variants of the lectin domains with oligolysine (4Lys) tails have been constructed; made in house; host or cells: E. coli (periplasm)
Experimental: as §1

F17aG lectin domain = F17aG lectin domain (Escherichia coli, UniProt Q99003); details: array version 4.1, exp. 2053
Excerpt: With mammalian printed array version 4.1, a new evaluation parameter was taken into account, namely % CV = 100 × Std. Dev/Mean. The highest and the lowest point from each set of six replicates have been removed so the average is of 4 values rather than 6. This eliminates some of the false hits that contain a single very high or low point. Thus, points with a high % CV should be considered suspect. […] This comparison provides information on binding specificity. The CFG glycan array data are available containing searchable results by means of flex-based data browser tools.
(§2) A microarray presenting 264 different glycans (mammalian printed array version 2 from the CFG, experiment 400) was used to evaluate whether the F17G variant lectin domains differ in the range of glycan receptors that they can recognize, thereby establishing strain-dependent tropism. […] The glycan array screening has been repeated for F17aG only on printed array version 4.1 (experiment 2053) (Figure 1).

FedF lectin domain = experiment: CFG glycan array version 2 (experiment 399), FedF lectin domain; format: binding, Escherichia coli; details: CFG glycan array experiment 399; FedF 100 μg/mL
Excerpt: The most highly, triple, sulfated disaccharide (1) is here the best binder: Galβ1,4GlcNAc sulfated at positions 3', 6' and 6 (Table 3). Sulfation of the O6 hydroxyl (2) of GlcNAc is important, as well as N-acetylation on its position 2 (3) because the lactose form has lower affinity. Monosulfation on the non-reducing end galactose (one ion at either 3', 6' or 4') and lack of sulfation at the reducing end GlcNAc each decrease the fluorescence signal dramatically.

FimH = tested on: FimH; parameters: method as in PMID 18446213; details: cited from earlier work
F17bG lectin domain = F17bG lectin domain (Escherichia coli, UniProt Q47200); details: array version 2, exp. 400
Experimental: A microarray presenting 264 different glycans (mammalian printed array version 2) was used to evaluate if the F17G variant lectin domains differ in the range of glycan receptors that they recognize, thereby establishing tropism. The microarray was set up within the Consortium for Functional Glycomics (CFG) ([20], and supplemental data). Binding of F17G (200 µg/mL) was detected using anti-F17G polyclonal rabbit IgG (10 µg/mL), followed by fluorescently labelled goat anti-rabbit polyclonal antibodies (IgG-488, 5 µg/mL).
as §2
Printed array version 2 at the Consortium for Functional Glycomics was used for glycan array screening of the variant F17G receptor binding domains. Slides were printed, with six replicates for each glycan, using glycan spotting concentrations of 100 μM, at the Consortium Carbohydrate Synthesis/Protein Expression Core D located at the Scripps Research Institute onto Schott Nexterion H slides (Schott Cat. No. 1070936B). Slide conditioning: preprinted slides were soaked in deionized water for 5 minutes at room temperature and dried under a stream of nitrogen. TSM buffer (20 mM Tris-HCl, pH 7.4, or MOPS 20 mM; 150 mM NaCl; 2 mM CaCl2, 2 mM MgCl2) was used as wash buffer (TSM buffer + 0.05% Tween 20) or binding buffer (TSM buffer + 0.05% Tween 20 + 1% BSA). (1) F17G was diluted to 200 μg/mL (Figure 1) in TSM binding buffer. (2) 50 μL of F17G was applied to the printed surface and coverslipped. (3) The slide was incubated, protected from light, in a humidified chamber for 1 hour at RT. (4) The slide was washed once in TSM wash buffer. 50 μL of the anti-F17G (10 μg/mL) polyclonal rabbit IgG were applied, coverslipped and incubated for 1 h at RT. (5) The slide was washed once in TSM wash buffer. Fifty μL of fluorescently labelled secondary goat anti-rabbit polyclonal antibodies (IgG-488, 5 µg/mL) were applied, coverslipped and incubated for 1 h at RT. (6) Slide was removed, followed by the coverslip, and washed for 10 s each in TSM wash buffer, TSM wash buffer lacking Tween 20, and deionized water. The slide was dried under a stream of nitrogen. (7) The binding image was read in a Perkin Elmer Microscanarray XL4000 scanner and tiff file of image stored. (8) Image analysis was performed using Imagene (V.6) image analysis software. (9) Raw data results files were generated in Excel format and uploaded to the Consortium database as .dat files. (10) Imagene data was uploaded to the database as .txt files.

[5] = SPR steady state, 25 °C, pH 7.4, read-out: Affinity range (Kd class), F17aG
[6] = read-out: Affinity range (Kd class), F17eG
[7] = SPR steady state, 25 °C, pH 7.4, good fit for at least three related experiments, read-out: dissociation constant Kd, F17aG
[8] = good fit for at least three related experiments, read-out: dissociation constant Kd, F17eG

Sequence of F17fG receptor-binding domain (Q9RH91 23-198): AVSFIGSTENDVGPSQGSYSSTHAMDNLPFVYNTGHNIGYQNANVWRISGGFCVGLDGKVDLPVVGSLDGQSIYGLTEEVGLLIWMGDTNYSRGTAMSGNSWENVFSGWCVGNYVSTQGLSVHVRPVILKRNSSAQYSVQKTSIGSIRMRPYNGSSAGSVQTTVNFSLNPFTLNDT
T2 sequence (Q47200 23-199): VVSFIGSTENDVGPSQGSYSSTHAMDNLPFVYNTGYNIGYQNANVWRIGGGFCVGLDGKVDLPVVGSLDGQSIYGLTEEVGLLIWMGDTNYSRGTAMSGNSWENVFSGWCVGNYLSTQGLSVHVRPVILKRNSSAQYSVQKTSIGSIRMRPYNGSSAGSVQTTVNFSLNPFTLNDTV
T1 sequence (Q99003 23-199): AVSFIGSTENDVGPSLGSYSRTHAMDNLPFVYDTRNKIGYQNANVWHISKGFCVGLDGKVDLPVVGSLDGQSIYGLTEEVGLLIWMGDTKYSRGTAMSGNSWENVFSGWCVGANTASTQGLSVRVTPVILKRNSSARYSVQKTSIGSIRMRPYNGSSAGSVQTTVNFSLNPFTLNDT
Sequence of F17aG lectin domain (Q99003 23-199): as above
Sequence of F17bG lectin domain (Q47200 23-199): as the sequence (Q47200 23-199) above

With CC(=O)N[C@@H]1[C@@H](O)[C@H](O)[C@@H](COS(=O)(=O)O)O[C@H]1O [GlcNAc6SO3^−] as the molecule, how does the Kd [1, 5] read?
The Kd was 10 to 100 mM.

And the Kd [2]?
Its Kd is > 100 mM.

And the Kd [3, 6]?
Its Kd is 1 to 10 mM.

With Galβ1,6GlcNAc as the molecule, how does the Kd [2] read?
The Kd was 10 to 100 mM.

And the Kd [3, 6]?
The Kd was 1 to 10 mM.

For CC(=O)N[C@H]1C(O)O[C@H](CO)[C@@H](O[C@@H]2O[C@H](CO)[C@@H](O)[C@H](O)[C@H]2N)[C@@H]1O[C@H](C)C(=O)O (stereo partly drawn) [GlcNH2-MurNAc, glucosamine β1,4 N-actetylmuramic acid], which Kd [1, 5] is on record?
The Kd was 10 to 100 mM.

And the Kd [4]?
Its Kd is 10 to 100 mM.

And the Kd [2]?
Its Kd is > 100 mM.

For CC(=O)N[C@@H]1C(O)O[C@H](CO)[C@@H](O)[C@@H]1O (some centres unmarked) [N-acetylmannosamine], which Kd [1, 5] is on record?
The Kd was 1 to 10 mM.

And the Kd [4]?
The Kd was 10 to 100 mM.

What about the Kd [2] of the same molecule?
The Kd was 1 to 10 mM.

What does the source list for CO[C@@H]1O[C@H](CO)[C@H](O)[C@H](O[C@@H]2O[C@H](CO)[C@@H](O)[C@H](O)[C@H]2NC(C)=O)[C@H]1O [GlcNAcβ1,3Gal, GlcNAc(β1-3)Galβ1OMe]?
Kd ([1]; SPR measurements, text says F17G without variant, read-out: Kd of F17G as stated in the discussion): 0.66 mM; Kd [1, 7]: 0.66 mM; Kd [1, 5]: 0.1 to 1 mM; Kd [4]: 1 to 10 mM; Kd [2]: 0.1 to 1 mM; Kd [3, 8]: 0.28 mM

For CC(=O)N[C@H]1C(O)O[C@H](CO)[C@@H](O)[C@@H]1OS(=O)(=O)O (some centres unmarked) [GlcNAc3SO3^−], which Kd [1, 5] is on record?
The Kd was 1 to 10 mM.

What about the Kd [4] of the same molecule?
The Kd was 1 to 10 mM.

And the Kd [2]?
The Kd was > 100 mM.

For HOOC(CH3)CH3-3-O-GlcNAcβ1,4GlcNAcβ-Sp10, which “Rank among binders on CFG array, F17aG” value (F17aG lectin domain) is on record?
Its value is “highest binding”.

With O=S(=O)(O)OC[C@H]1O[C@@H](O[C@H]2[C@H](O)[C@@H](O)C(O)O[C@@H]2COS(=O)(=O)O)[C@H](O)[C@@H](O)[C@H]1O (some centres unmarked) [[6OSO3]Galβ1,4[6OSO3]Glc] as the molecule, how does the “RFU (averaged Relative Fluorescence Units for the six replicates), FedF lectin domain” value (FedF lectin domain) read?
The value was 5,405 RFU.

With [3OSO3][6OSO3]Galβ1,4GlcNAc as the molecule, how does the “RFU (averaged Relative Fluorescence Units for the six replicates), FedF lectin domain” value (FedF lectin domain) read?
Its value is 4,733 RFU.

With CC(=O)NC1C(O)OC(CO)C(OC2OC(COS(=O)(=O)O)C(OS(=O)(=O)O)C(O)C2O)C1O (centres unmarked) [[4OSO3][6OSO3]Galβ1,4GlcNAc] as the molecule, how does the “RFU (averaged Relative Fluorescence Units for the six replicates), FedF lectin domain” value (FedF lectin domain) read?
The value was 4,568 RFU.

Which “RFU (averaged Relative Fluorescence Units for the six replicates), FedF lectin domain” value (FedF lectin domain) does the source give for CC(=O)N[C@H]1C(O)O[C@H](COS(=O)(=O)O)[C@@H](O[C@@H]2O[C@H](COS(=O)(=O)O)[C@H](O)[C@H](OS(=O)(=O)O)[C@H]2O)[C@@H]1O (some centres unmarked) [[3OSO3][6OSO3]Galβ1,4[6OSO3]GlcNAc] here?
The value was 10,388 RFU.

Which results are given for CC(=O)N[C@H]1C(O)O[C@H](COP(=O)(O)O)[C@@H](O)[C@@H]1O (some centres unmarked) [GlcNAc6PO3^2−]?
Kd [1, 5]: > 100 mM; Kd [4]: 10 to 100 mM; Kd [2]: > 100 mM

What does the source list for CC(=O)N[C@H]1[C@H](O[C@@H]2[C@@H](OC[C@H]3OC(O)[C@@H](O)[C@@H](O[C@H]4O[C@H](CO)[C@@H](O)[C@H](O)[C@@H]4O[C@@H]4O[C@H](CO)[C@@H](O)[C@H](O)[C@H]4NC(C)=O)[C@@H]3O)O[C@H](CO)[C@@H](O)[C@@H]2O)O[C@H](CO)[C@@H](O)[C@@H]1O (some centres unmarked) [GlcNAcβ1,2Manα1,6(GlcNAcβ1,2Manα1,3)Man]?
Kd [1, 7]: 3 mM; Kd [1, 5]: 1 to 10 mM; Kd [3, 8]: 3 mM; Kd [3, 6]: 1 to 10 mM

Which Kd [1, 7] does the source give for CC(=O)N[C@H]1[C@H](O[C@H]2[C@H](O)[C@@H](NC(C)=O)C(O)O[C@@H]2CO)O[C@H](CO)[C@@H](O)[C@@H]1O (some centres unmarked) [GlcNAcβ1,4GlcNAc] here?
The Kd was 3.3 mM.

What about the Kd [1, 5] of the same molecule?
The Kd was 1 to 10 mM.

What about the Kd [4] of the same molecule?
Its Kd is 1 to 10 mM.

And the Kd [2]?
The Kd was 1 to 10 mM.

For CC(=O)N[C@H]1[C@H](Oc2ccc([N+](=O)[O-])cc2)O[C@H](CO)[C@@H](O)[C@@H]1O [pNP-GlcNAc, paranitrophenyl β-GlcNAc], which Kd [1, 5] is on record?
The Kd was 0.1 to 1 mM.

And the Kd [4]?
Its Kd is 10 to 100 mM.

What about the Kd [2] of the same molecule?
The Kd was 1 to 10 mM.

With O=S(=O)(O)OCC1OC(O)C(O)C(O)C1OC1OC(CO)C(O)C(OS(=O)(=O)O)C1O (centres unmarked) [[3OSO3]Galβ1,4[6OSO3]Glc] as the molecule, how does the “RFU (averaged Relative Fluorescence Units for the six replicates), FedF lectin domain” value (FedF lectin domain) read?
Its value is 4,073 RFU.

Which “increased binding compared to α-D-mannose” value (FimH) does the source give for CC(=O)N[C@H]1[C@H](O[C@H]2[C@H](O)[C@@H](NC(C)=O)C(O)O[C@@H]2CO)O[C@H](CO)[C@@H](O[C@@H]2O[C@H](CO[C@H]3O[C@H](CO)[C@@H](O)[C@H](O)[C@@H]3O)[C@@H](O)[C@H](O[C@H]3O[C@H](CO)[C@@H](O)[C@H](O)[C@@H]3O)[C@@H]2O)[C@@H]1O (some centres unmarked) [oligomannose-3] here?
The value was 100 fold.

With CC(=O)NC1C(O)OC(COS(=O)(=O)O)C(OC2OC(CO)C(O)C(OS(=O)(=O)O)C2O)C1O (centres unmarked) [[3OSO3]Galβ1,4[6OSO3]GlcNAc] as the molecule, how does the “Rank among binders on CFG array, F17bG (variant b)” value (F17bG lectin domain) read?
The value was 28th best binder.

What about the “RFU (averaged Relative Fluorescence Units for the six replicates), FedF lectin domain” value (FedF lectin domain) of the same molecule?
The value was 6,806 RFU.

And the “Rank among binders on CFG array, F17aG” value (F17aG lectin domain)?
Its value is “tenth best binder”.
